Data on six compounds can be found in US10624877B2, “Composition and method for treatment of symptoms associated with various skin conditions” (priority 2011, dated 2020).

In one series the target is T1, S1P lyase (Mus musculus, UniProt Q8R0X7).
T1 sequence (Q8R0X7 1-568): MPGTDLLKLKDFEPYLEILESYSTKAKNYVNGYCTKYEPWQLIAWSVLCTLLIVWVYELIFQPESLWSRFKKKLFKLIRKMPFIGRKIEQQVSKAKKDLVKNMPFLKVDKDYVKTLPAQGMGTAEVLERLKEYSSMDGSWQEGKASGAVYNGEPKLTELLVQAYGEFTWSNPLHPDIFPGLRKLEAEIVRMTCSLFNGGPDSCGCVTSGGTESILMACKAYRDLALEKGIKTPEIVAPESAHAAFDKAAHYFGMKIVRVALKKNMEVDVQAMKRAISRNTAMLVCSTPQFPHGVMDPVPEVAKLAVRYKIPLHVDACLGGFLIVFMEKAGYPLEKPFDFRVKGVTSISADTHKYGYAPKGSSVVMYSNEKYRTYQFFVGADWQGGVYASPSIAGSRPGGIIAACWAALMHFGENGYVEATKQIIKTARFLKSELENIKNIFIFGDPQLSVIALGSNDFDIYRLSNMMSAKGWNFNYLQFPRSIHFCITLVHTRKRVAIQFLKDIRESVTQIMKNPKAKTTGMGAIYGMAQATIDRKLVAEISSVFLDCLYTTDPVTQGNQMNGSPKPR
As to conditions: when administered to mice; cited from earlier work.

The next series deals with mice. As to conditions: administration to mice; cited from earlier work.
The subject of a further series is humans. Conditions: studies in humans; cited from earlier work.
Series [1] in a line: Examination of 1.0% THI cream on a mixing plate. The format is physicochemical. As to conditions: 100 mg THI in 10 g base cream (1.0%). The procedure: A topical formulation containing 100 mg of THI in 10 g of base cream was prepared as follows. […] A smooth cream was obtained by levigation in a marble mortar and pestle. A dime-sized portion of the […] material was then incorporate geometrically with similar-sized portions of base and mixed thoroughly. […] Application of the finished cream to the skin left no residue.

In a further series the test system is rats. As to conditions: administration to rats; cited from earlier work.
The subject of series [2] is skin. As to conditions: cited from earlier work.
In series [3] the test system is skin. As to conditions: clinical studies; could be related to formaldehyde release; cited from earlier work.
For series [4] the following is noted: laboratory study; cited from earlier work.
For series [5] the following is noted: concentrations higher than in products; attributed to formaldehyde release; cited from earlier work.
The test system of series [6] is skin. Conditions: human exposure studies and clinical experience; cited from earlier work.
The conditions of series [7]: chronic studies; cited from earlier work.
For series [8] the following is noted: in vivo; cited from earlier work.
The conditions of series [9]: dermal laboratory studies; cited from earlier work.
Series [10] relates to skin. Conditions: clinical studies; cited from earlier work.
For series [11] the following is noted: subchronic oral, high doses; cited from earlier work.
The next series deals with eye. Conditions: in vivo; cited from earlier work.
For series [12] the following is noted: in vivo; cited from earlier work. This is another data set of the same source.

Turning to `CC(=O)c1nc(C(O)C(O)C(O)CO)c[nH]1` (stereo not shown) [THI, 2-acetyl-4-tetrahydroxybutylimidazole], the S1P lyase activity entry at S1P lyase is recorded as “inhibits S1P lyase activity”. Also, in the series with mice, the “accumulation of mature T cells in the thymus” value is recorded as “causes the accumulation of mature T cells in the thymus” and the lymphopenia entry is “induces lymphopenia”. Also, the “immunological effects in humans” value in the series with humans is listed as “no immunological effects”. The “dissolution of THI in the cream base” value in series [1] is “at least partially dissolving in the cream base”. In addition, in the series on rats, the “accumulation of mature T cells in the thymus” value is given as “causes the accumulation of mature T cells in the thymus” and the lymphopenia result is reported as “induces lymphopenia”.

With `CC1(C)C(=O)N(CO)C(=O)N1CO` [DMDM hydantoin, 1,3-Bis(hydroxymethyl)-5,5-dimethylimidazolidine-2,4-dione], in the series with skin [2], the “absorption from the skin” value is on record as “poorly absorbed from the skin”. Besides, in the series on skin [3], the skin irritation entry is given as “some observations of skin irritation”. Moreover, the “adverse effects of oral exposure” value in [4] was “did not result in any adverse effects”. Besides, the in vitro mutagenicity entry in [5] is on record as “positive results in some in vitro mutagenicity studies”.

As to `CCCCCCCCCCCCCCCCCC(=O)OCC(O)CO` (stereo not shown) [glyceryl stearate, Glyceryl stearate], the “sensitization, phototoxicity, photosensitization” value in the series with skin [6] was “non-sensitizing, non-phototoxic and non-photosensitizing”. Besides, in series [7], the carcinogenic effects result is reported as “no carcinogenic effects” and the effects on reproduction entry is “no adverse effects on reproduction”.

On to `OCCOc1ccccc1` [phenoxyethanol, 2-Phenoxyethanol], for which, in series [8], the “toxicity via oral and dermal administration” value was “practically nontoxic”. For the same compound, the birth defects result in series [9] was “did not cause any birth defects”. Further, in the series on skin [10], the delayed hypersensitivity entry is “did not cause delayed hypersensitivity”; the phototoxicity entry is listed as “nonphototoxic”; the “primary and cumulative irritation” value is “neither a primary nor a cumulative irritant”. Besides, the organ weights result in series [11] is on record as “increased weights of some organs”.

Take Carbomer: the eye irritation result in the series on eye is given as “no to moderate eye irritation”.

Turning to PEG-100 stearate, the “changes in growth, histopathologic observations or hematologic values” in series [12] is reported as “no significant changes”.
